We go through nine compounds from ChEMBL document CHEMBL5465560, “Selectivity Literature for EUbOPEN Chemogenomic Library” (2024).

Test [1] concerns the target T1, Serine/threonine-protein kinase TAO2 (Homo sapiens) (UniProt Q9UL54).
T1 sequence (whole entry): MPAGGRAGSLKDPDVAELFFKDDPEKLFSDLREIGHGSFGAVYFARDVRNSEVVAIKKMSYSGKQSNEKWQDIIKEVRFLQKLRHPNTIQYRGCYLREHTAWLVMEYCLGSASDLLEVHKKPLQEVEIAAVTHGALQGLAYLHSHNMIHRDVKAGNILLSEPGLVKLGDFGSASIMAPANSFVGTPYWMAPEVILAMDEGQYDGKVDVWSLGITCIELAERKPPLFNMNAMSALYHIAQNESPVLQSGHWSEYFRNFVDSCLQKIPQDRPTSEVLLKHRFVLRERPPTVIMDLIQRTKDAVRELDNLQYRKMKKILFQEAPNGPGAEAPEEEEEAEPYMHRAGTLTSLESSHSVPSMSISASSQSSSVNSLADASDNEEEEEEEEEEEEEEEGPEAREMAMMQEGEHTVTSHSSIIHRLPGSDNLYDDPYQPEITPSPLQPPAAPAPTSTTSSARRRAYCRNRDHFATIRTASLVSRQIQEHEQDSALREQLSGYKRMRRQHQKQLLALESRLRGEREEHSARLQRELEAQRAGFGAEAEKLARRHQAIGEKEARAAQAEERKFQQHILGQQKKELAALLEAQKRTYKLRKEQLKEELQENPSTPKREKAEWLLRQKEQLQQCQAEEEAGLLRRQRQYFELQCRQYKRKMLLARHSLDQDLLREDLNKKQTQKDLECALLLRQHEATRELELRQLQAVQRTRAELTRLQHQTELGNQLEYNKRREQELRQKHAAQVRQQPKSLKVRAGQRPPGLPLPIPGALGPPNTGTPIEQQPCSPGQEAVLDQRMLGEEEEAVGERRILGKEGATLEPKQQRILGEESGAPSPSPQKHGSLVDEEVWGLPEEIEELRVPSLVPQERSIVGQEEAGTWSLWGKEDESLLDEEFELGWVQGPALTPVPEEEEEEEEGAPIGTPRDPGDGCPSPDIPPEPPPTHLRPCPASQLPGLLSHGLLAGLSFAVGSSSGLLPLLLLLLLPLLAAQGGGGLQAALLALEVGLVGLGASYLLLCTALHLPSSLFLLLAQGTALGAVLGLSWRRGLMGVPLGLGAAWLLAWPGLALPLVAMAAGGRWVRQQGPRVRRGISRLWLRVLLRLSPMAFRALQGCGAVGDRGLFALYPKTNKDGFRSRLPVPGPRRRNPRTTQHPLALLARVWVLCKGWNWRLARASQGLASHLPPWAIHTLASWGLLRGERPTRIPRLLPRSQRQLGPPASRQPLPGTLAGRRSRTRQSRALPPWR
The experiment in a line: Selectivity interaction (ActivX KiNativ screen (ex vivo kinase selectivity in human PBMCs)) EUB0001619a TAOK2. The test is classed as cell-based. Conditions: PBMC, at 1 µM.

Test [2] deals with Cyclin-dependent kinase 8 (Homo sapiens, UniProt P49336). Conditions: at 10 µM.
Sequence of Cyclin-dependent kinase 8 (P49336 whole entry): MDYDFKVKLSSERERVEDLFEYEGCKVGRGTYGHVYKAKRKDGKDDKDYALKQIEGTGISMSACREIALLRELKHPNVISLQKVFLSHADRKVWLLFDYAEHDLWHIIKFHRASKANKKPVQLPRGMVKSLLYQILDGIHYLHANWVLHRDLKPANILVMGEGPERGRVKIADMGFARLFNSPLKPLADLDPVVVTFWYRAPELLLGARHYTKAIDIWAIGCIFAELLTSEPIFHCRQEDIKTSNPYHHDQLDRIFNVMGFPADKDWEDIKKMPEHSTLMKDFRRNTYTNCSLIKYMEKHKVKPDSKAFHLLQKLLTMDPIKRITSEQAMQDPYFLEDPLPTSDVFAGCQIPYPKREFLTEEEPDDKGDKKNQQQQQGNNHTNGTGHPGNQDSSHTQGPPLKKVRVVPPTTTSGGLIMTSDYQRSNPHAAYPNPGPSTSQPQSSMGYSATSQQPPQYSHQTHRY
The target in test [3] is Protein kinase C delta type (Homo sapiens) (UniProt Q05655). The experiment in a line: Selectivity interaction (KinomeScan (DiscoverX)) EUB0000666a PRKCD. Conditions: at 10 µM.
Sequence of Protein kinase C delta type (Homo sapiens) (Q05655 whole entry, looked up): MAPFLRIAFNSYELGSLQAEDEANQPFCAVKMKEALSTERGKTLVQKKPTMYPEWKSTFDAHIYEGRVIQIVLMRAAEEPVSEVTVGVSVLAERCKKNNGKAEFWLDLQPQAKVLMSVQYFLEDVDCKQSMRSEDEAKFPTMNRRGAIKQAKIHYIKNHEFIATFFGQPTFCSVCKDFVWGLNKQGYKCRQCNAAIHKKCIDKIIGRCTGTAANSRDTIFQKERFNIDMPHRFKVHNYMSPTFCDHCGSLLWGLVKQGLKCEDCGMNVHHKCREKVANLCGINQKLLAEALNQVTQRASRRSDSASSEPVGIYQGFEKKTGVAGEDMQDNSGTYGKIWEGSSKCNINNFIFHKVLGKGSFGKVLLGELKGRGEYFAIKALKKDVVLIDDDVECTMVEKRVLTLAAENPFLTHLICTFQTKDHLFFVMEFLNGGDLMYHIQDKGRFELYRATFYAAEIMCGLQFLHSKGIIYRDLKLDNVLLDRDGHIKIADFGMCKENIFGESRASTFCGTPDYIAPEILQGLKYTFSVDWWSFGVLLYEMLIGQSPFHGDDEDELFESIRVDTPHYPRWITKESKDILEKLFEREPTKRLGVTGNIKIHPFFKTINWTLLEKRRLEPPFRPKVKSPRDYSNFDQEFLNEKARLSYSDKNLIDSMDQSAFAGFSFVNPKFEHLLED
A short description of test [4]: Selectivity interaction (KinomeScan (DiscoverX)) EUB0000607a PKNB. The note with it: at 10 µM.
The target of test [5] is T2, Sphingosine kinase 2 (Homo sapiens) (UniProt Q9NRA0).
T2 sequence (whole entry): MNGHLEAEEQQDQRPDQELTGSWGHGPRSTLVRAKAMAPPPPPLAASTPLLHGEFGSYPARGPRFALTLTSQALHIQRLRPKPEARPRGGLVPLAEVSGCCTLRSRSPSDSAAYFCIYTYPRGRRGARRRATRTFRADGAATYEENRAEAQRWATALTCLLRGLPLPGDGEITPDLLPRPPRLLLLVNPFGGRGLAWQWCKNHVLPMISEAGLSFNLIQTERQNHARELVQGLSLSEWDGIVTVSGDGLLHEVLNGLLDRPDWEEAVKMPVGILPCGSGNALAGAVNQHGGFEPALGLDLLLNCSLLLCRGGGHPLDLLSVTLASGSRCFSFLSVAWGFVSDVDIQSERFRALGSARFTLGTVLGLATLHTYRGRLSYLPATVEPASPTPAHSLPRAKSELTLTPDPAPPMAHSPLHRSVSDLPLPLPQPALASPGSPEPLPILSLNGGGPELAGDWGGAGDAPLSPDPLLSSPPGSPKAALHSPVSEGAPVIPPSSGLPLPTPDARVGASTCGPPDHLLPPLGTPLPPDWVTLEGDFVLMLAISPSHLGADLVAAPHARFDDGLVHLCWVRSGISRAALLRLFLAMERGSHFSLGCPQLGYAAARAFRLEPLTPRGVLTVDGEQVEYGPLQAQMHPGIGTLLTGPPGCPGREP
The experiment in a line: Selectivity interaction (Kinase panel (Invitrogen)) EUB0000639a SPHK2. The note with it: at 200 nM.

Test [6] deals with Mitogen-activated protein kinase kinase kinase 11 (Homo sapiens) (UniProt Q16584). The experiment in a line: Selectivity interaction (ActivX KiNativ screen (kinase selectivity in THP-1 cell lysates)) EUB0000639a MAP3K11. It counts as subcellular. Conditions: lysate, at 0.01 µM.
Sequence of Mitogen-activated protein kinase kinase kinase 11 (Homo sapiens) (Q16584 whole entry, looked up): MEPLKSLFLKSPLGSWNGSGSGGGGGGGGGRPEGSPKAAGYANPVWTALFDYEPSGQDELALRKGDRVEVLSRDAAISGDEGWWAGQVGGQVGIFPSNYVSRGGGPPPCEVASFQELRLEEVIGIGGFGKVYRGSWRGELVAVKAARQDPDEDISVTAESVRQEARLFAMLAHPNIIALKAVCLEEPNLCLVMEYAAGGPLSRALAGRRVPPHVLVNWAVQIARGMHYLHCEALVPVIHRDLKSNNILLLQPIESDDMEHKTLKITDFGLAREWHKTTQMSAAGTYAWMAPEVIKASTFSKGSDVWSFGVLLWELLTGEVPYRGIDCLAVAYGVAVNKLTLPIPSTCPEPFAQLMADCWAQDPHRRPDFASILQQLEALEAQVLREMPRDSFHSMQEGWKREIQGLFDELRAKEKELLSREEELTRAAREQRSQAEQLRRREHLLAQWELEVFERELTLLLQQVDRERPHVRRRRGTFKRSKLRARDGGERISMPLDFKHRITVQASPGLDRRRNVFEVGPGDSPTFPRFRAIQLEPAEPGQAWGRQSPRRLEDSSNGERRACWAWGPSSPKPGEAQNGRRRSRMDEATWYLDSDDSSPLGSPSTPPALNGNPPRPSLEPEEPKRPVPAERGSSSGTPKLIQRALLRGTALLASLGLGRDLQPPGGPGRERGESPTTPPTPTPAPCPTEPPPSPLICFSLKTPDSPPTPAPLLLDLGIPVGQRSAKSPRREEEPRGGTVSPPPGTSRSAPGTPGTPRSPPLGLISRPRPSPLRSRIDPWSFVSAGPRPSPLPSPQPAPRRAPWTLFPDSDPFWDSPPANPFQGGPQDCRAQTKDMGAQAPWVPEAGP
The target in test [7] is Calcium/calmodulin-dependent protein kinase type II subunit beta (Homo sapiens) (UniProt Q13554). The experiment in a line: Selectivity interaction (Kinase panel (DSF assay)) EUB0001559a CAMK2B. A general note: DSF heats the sample and reads unfolding from a dye or from intrinsic fluorescence.
Sequence of Calcium/calmodulin-dependent protein kinase type II subunit beta (Homo sapiens) (Q13554 whole entry): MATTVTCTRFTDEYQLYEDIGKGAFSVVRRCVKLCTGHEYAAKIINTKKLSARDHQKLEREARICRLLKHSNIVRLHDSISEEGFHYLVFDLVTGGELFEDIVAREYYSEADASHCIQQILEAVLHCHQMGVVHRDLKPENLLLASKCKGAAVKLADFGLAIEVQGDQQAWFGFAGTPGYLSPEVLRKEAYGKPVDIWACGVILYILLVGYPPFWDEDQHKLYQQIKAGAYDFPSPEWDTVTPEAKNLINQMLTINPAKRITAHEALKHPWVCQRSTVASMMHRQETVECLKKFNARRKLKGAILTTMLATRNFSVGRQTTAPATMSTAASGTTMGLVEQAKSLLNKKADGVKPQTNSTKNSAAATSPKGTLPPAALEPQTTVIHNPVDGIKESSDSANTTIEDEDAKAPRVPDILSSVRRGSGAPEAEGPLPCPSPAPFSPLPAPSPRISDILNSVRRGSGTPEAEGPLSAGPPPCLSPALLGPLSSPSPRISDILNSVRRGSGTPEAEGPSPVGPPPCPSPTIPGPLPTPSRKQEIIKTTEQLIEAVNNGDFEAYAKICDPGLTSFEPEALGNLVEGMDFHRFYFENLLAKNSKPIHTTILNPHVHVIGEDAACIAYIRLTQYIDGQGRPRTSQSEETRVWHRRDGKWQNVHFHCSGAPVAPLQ
The target in test [8] is Dual specificity mitogen-activated protein kinase kinase 1 (Homo sapiens, UniProt Q02750). The experiment in a line: Selectivity interaction (KinomeScan (DiscoverX)) EUB0000045b MAP2K1.
Sequence of Dual specificity mitogen-activated protein kinase kinase 1 (Q02750 whole entry): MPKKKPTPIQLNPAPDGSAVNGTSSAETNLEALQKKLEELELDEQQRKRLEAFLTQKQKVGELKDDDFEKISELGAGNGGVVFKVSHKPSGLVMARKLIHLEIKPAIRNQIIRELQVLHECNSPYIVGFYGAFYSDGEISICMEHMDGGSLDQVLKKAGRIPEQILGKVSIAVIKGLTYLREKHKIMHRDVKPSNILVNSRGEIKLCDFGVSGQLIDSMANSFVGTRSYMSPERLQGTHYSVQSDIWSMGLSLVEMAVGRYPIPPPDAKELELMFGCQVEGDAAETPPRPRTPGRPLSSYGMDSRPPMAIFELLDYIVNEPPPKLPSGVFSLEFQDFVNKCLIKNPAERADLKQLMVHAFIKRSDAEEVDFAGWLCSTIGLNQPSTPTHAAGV
The target of test [9] is Tyrosine-protein kinase Blk (Homo sapiens) (UniProt P51451). The experiment in a line: Selectivity interaction (Ambit KINOMEscan and KiNATiv profiling in Jurkat cells) EUB0000090b BLK. The test is classed as cell-based. The note with it: at 1 µM.
Sequence of Tyrosine-protein kinase Blk (Homo sapiens) (P51451 2-505 limits assumed): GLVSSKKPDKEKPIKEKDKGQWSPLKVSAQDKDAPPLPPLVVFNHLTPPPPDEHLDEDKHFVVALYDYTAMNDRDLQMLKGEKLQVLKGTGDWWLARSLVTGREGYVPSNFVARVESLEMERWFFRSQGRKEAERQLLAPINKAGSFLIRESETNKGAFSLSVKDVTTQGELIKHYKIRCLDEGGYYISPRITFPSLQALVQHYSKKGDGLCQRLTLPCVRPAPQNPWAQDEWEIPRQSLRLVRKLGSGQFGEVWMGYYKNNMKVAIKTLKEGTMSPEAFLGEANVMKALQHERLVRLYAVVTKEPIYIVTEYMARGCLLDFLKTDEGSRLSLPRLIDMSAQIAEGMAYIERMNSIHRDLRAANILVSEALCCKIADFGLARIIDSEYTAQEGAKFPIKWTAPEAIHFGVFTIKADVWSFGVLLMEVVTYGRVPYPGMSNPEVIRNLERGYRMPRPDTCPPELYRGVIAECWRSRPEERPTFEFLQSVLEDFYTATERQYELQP
The target in test [10] is Death-associated protein kinase 2 (Homo sapiens) (UniProt Q9UIK4). The experiment in a line: Selectivity interaction (KinomeScan (DiscoverX)) EUB0001049a DAPK2. The note with it: at 1 µM.
Sequence of Death-associated protein kinase 2 (Homo sapiens) (Q9UIK4 whole entry, looked up): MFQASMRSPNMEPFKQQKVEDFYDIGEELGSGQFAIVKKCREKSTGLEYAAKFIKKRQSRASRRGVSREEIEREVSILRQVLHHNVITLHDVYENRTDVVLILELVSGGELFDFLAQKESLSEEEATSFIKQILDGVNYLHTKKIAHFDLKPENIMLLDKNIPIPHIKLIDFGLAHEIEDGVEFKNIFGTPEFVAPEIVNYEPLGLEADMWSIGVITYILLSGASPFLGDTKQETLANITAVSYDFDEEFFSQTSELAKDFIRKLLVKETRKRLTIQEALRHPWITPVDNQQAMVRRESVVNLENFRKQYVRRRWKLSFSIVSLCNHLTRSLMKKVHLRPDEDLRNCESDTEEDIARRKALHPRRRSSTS

As to `N#Cc1cccc(-c2c[nH]c3ncnc(N4CCOCC4)c23)c1`, the % of inhibition in test [1] was -3%.

In test [2], `CCN(CC)CCCCNc1ncc2cc(-c3cc(OC)cc(OC)c3)c(NC(=O)NC(C)(C)C)nc2n1` came in with a % of control of 100%.

With `O=C(NOC[C@H](O)CO)c1ccc(F)c(F)c1Nc1ccc(I)cc1F`, the % of control in test [3] is 100%.

`CNC(=O)Nc1ccc(-c2nc(N3CC4CCC(C3)O4)c3cnn(C4CCC5(CC4)OCCO5)c3n2)cc1` yielded a % of control in test [4] of 94%.

With `CC[C@@H]1[C@H](F)C(=O)N[C@@H]1COc1nccc2cc(C(N)=O)c(OC)cc12` [ZIMLOVISERTIB], the % of inhibition was -0.837% in [5] and 4.9% in [6].

As for `CN(C(=O)c1cnn2cccnc12)c1cc2c(cc1N1CCOCC1)C(=O)N(C[C@@H](F)C(C)(C)O)C2`, the dTM in [7] turned out to be 0 K.

As for `C=CC(=O)Nc1cc(-n2c(=O)ccc3cnc4ccc(-c5ccc(NS(C)(=O)=O)cc5)cc4c32)ccc1C`, the % of control in test [8] (at 1 µM) was determined as 100%; in test [8] (at 10 µM), 65%.

As for `CN(C)C/C=C/C(=O)Nc1ccc(C(=O)N2CCCC(Nc3ncc(Cl)c(-c4c[nH]c5ccccc45)n3)C2)cc1` (stereo unspecified), the % of control in test [9] stood at 84%.

`COc1cc(Nc2nc(C)cc(-c3cnn4nc(OC)ccc34)n2)cc(C(F)(F)F)c1` had a % of control in test [10] of 100%.
